Tested on: 997537-175-T-J1-PDC complex spheroid viability
Test: Anticancer human tumor 997537-175-T-J1-PDC patient-derived colon adenocarcinoma cell line growth inhibition [GQUAD]
Details: for IC50: curve of first compound; for viability, T/C: stronger effect = lower value
Method in brief: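 Tumor cells were grown as complex spheroids with HUVEC endothelial cells and mesenchymal stem cells as stroma. G-quadruplex stabilizers were combined with targeted agents over half-log dilutions from near the clinical Cmax, or from 10 microM.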

[1] = second compound 0.0316 µM, first compound 0.0316 µM
[2] = second compound 0.0316 µM, first compound 0.1 µM
[3] = second compound 0.0316 µM, first compound 0.316 µM
[4] = second compound 0.0316 µM, first compound 1 µM
[5] = second compound 0.0316 µM, first compound 3.16 µM
[6] = second compound 0.0316 µM, first compound 10 µM
[7] = second compound 0.1 µM, first compound 0.0316 µM
[8] = second compound 0.1 µM, first compound 0.1 µM
[9] = second compound 0.1 µM, first compound 0.316 µM
[10] = second compound 0.1 µM, first compound 1 µM
[11] = second compound 0.1 µM, first compound 3.16 µM
[12] = second compound 0.1 µM, first compound 10 µM
[13] = second compound 0.316 µM, first compound 0.0316 µM
[14] = second compound 0.316 µM, first compound 0.1 µM
[15] = second compound 0.316 µM, first compound 0.316 µM
[16] = second compound 0.316 µM, first compound 1 µM
[17] = second compound 0.316 µM, first compound 3.16 µM
[18] = second compound 0.316 µM, first compound 10 µM
[19] = second compound 1 µM, first compound 0.0316 µM
[20] = second compound 1 µM, first compound 0.1 µM
[21] = second compound 1 µM, first compound 0.316 µM
[22] = second compound 1 µM, first compound 1 µM
[23] = second compound 1 µM, first compound 3.16 µM
[24] = second compound 1 µM, first compound 10 µM
[25] = second compound 3.16 µM, first compound 0.0316 µM
[26] = second compound 3.16 µM, first compound 0.1 µM
[27] = second compound 3.16 µM, first compound 0.316 µM
[28] = second compound 3.16 µM, first compound 1 µM
[29] = second compound 3.16 µM, first compound 3.16 µM
[30] = second compound 3.16 µM, first compound 10 µM
[31] = second compound 10 µM, first compound 0.0316 µM
[32] = second compound 10 µM, first compound 0.1 µM
[33] = second compound 10 µM, first compound 0.316 µM
[34] = second compound 10 µM, first compound 1 µM
[35] = second compound 10 µM, first compound 3.16 µM
[36] = second compound 10 µM, first compound 10 µM
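Note: spheroids exposed to the agents for 7 days.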
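Throughout, for viability, T/C: 100% = DMSO vehicle control viability.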

COc1ccc([C@@H](O)c2cc(-c3ncnc4cc(N5CCOCC5)ccc34)c(F)cc2Cl)nn1 + Cc1[nH]c2ccc(F)cc2c1-c1nc2c3cccnc3c3ncccc3c2[nH]1
IC50 (second compound 0.0316 µM): > 10 µM
IC50 (second compound 0.1 µM): > 10 µM
IC50 (second compound 0.316 µM): > 10 µM
IC50 (second compound 1 µM): 7.63 µM
IC50 (second compound 3.16 µM): > 10 µM
IC50 (second compound 10 µM): 8.49 µM
viability, T/C [1]: 90%
viability, T/C [2]: 98.5%
viability, T/C [3]: 93.9%
viability, T/C [4]: 80.4%
viability, T/C [5]: 80.5%
viability, T/C [6]: 60%
viability, T/C [7]: 110%
viability, T/C [8]: 86.2%
viability, T/C [9]: 92.3%
viability, T/C [10]: 60.7%
viability, T/C [11]: 106%
viability, T/C [12]: 48.8%
viability, T/C [13]: 86.8%
viability, T/C [14]: 98.9%
viability, T/C [15]: 100%
viability, T/C [16]: 81%
viability, T/C [17]: 98.9%
viability, T/C [18]: 67.8%
viability, T/C [19]: 74.3%
viability, T/C [20]: 81.4%
viability, T/C [21]: 95.4%
viability, T/C [22]: 72%
viability, T/C [23]: 86.6%
viability, T/C [24]: 40.1%
viability, T/C [25]: 72.4%
viability, T/C [26]: 71.9%
viability, T/C [27]: 51.2%
viability, T/C [28]: 92.2%
viability, T/C [29]: 95.9%
viability, T/C [30]: 54.7%
viability, T/C [31]: 66%
viability, T/C [32]: 88.5%
viability, T/C [33]: 73.1%
viability, T/C [34]: 73.1%
viability, T/C [35]: 80.4%
viability, T/C [36]: 45.7%

O=c1[nH]cc(F)c(=O)[nH]1 + Cc1cnc(CNC(=O)c2c(=O)c3ccc(N4CCCN(C)CC4)nc3n3c2sc2ccccc23)cn1
IC50 (second compound 0.0316 µM): > 10 µM
IC50 (second compound 0.1 µM): > 10 µM
IC50 (second compound 0.316 µM): > 10 µM
IC50 (second compound 1 µM): > 10 µM
IC50 (second compound 3.16 µM): > 10 µM
IC50 (second compound 10 µM): > 10 µM
viability, T/C [1]: 96.2%
viability, T/C [2]: 87.6%
viability, T/C [3]: 85.1%
viability, T/C [4]: 92.8%
viability, T/C [5]: 89.6%
viability, T/C [6]: 76.2%
viability, T/C [7]: 75.6%
viability, T/C [8]: 82.8%
viability, T/C [9]: 92.8%
viability, T/C [10]: 82.8%
viability, T/C [11]: 102%
viability, T/C [12]: 83%
viability, T/C [13]: 75.9%
viability, T/C [14]: 74.3%
viability, T/C [15]: 84%
viability, T/C [16]: 105%
viability, T/C [17]: 110%
viability, T/C [18]: 111%
viability, T/C [19]: 88.1%
viability, T/C [20]: 70.1%
viability, T/C [21]: 84.9%
viability, T/C [22]: 109%
viability, T/C [23]: 67.2%
viability, T/C [24]: 82.6%
viability, T/C [25]: 78.4%
viability, T/C [26]: 96.1%
viability, T/C [27]: 87.8%
viability, T/C [28]: 90.1%
viability, T/C [29]: 82.7%
viability, T/C [30]: 92.7%
viability, T/C [31]: 73.7%
viability, T/C [32]: 95.3%
viability, T/C [33]: 98.3%
viability, T/C [34]: 75.2%
viability, T/C [35]: 107%
viability, T/C [36]: 90.6%
